*1 amine or outer side, *2 acyl side, *3 side chain or, on linkers, in order; H or OH if unused. Where no end group is shown, it is not given here. [ ]: non-standard residue; d: D form. The star is where a group is joined. 5FAM = O=C1OC2(c3ccc(O)cc3Oc3cc(O)ccc32)c2ccc(C(=O)*)cc21; Suc = O=C(CCC(=O)[*:2])[*:1]; Cy3 = Cy3 fluorophore label; Cy5 = Cy5 fluorophore label; Ahx = NCCCCCC(=O)O

In data set [1] the test system is human PCa tissue microarray. Nature of the data set: AZP staining of fresh-frozen human PCa tissue microarray (TMA). It is filed as biochemical. To be noted: for labeling of PCa tissue relative to normal prostates: AZP signal normalized to polyR, normal n=4, PCa n=24 cores; for labeling with vs without broad-spectrum cocktail of protease inhibitors: consecutive TMA sections. The source says: Two AZPs incorporating MMP-responsive substrates, PZ16 (SEQ ID NO:184) and PZ19, and two AZPs incorporating serine protease-responsive substrates, Z2 (SEQ ID NO:172) and PZ11 (SEQ ID NO:180), were selected for evaluation. We applied these probes, along with a free polyR control, to a frozen human PCa TMA that contained biopsies from normal prostates and PCa tumors across a range of Gleason scores.
To determine whether AZP binding was dependent on proteolysis, for each probe a consecutive TMA section was treated with a broad-spectrum cocktail of protease inhibitors.
We then investigated whether AZPs preferentially labeled PCa tissue relative to normal prostates. […] AZP activation and tissue staining across the TMA was quantitatively assessed by normalizing AZP signal intensity to polyR signal to account for differing binding propensities within a single core and across individual specimens. […] We further assessed the classification accuracy of these two in situ probes using receiver operating characteristic (ROC) curves.

The subject of data set [2] is tissue-resident proteases in Eml4-Alk lung tissue sections. Nature of the data set: In situ zymography with AZPs on fresh-frozen lung tissue sections. It is filed as biochemical, mouse. To be noted: for AZP labeling of Eml4-Alk lung tissue: individual AZPs on consecutive sections, 7 weeks after tumor induction; for effect of inhibitor on Z1 tissue labeling: Eml4-Alk lung sections, 1 mM marimastat, 400 μM AEBSF or inhibitor cocktail. On the procedure:
Mice were euthanized by isoflurane overdose. Lungs were then filled with undiluted optimal-cutting-temperature (OCT) compound through catheterization of the trachea; the trachea was subsequently clamped; and lungs were extracted. Individual lobes were dissected and then immediately embedded and frozen in optimal-cutting-temperature (OCT) compound (Sakura).
Cryosectioning was performed at the Koch Institute Histology Core. Prior to staining, slides were air dried, fixed in ice-cold acetone for 10 minutes, and then air dried. After hydration in PBS (3×5 minutes), tissue sections were blocked in protease assay buffer (50 mM Tris, 300 mM NaCl, 10 mM CaCl2), 2 mM ZnCl2, 0.02% (v/v) Brij-35, 1% (w/v) BSA, pH 7.5) for 30 minutes at room temperature. Blocking buffer was aspirated, and solution containing fluorescently labeled AZPs (1 μM each AZP) and a free poly-arginine control (polyR, 0.1 μM) diluted in the protease assay buffer was applied. Slides were incubated in a humidified chamber at 37° C. for 4 hours. For inhibited controls, 400 μM AEBSF (Sigma Aldrich), 1 mM marimastat (Sigma Aldrich), or protease inhibitor cocktail (P8340, Sigma Aldrich) spiked with AEBSF and marimastat was added to the buffer at both the blocking and cleavage assay steps. For uninhibited conditions, dimethyl sulfoxide (DMSO) was added to the assay buffer to a final concentration of 3% (v/v). For co-staining experiments, primary antibodies (E-cadherin, AF748, R&D Systems, 4 μg/mL; vimentin, ab92547, Abcam, 0.5 μg/mL; CD31, AF3628, R&D Systems, 10 μg/mL; desmin, ab227651, Abcam, 1.32 μg/mL) were included in the AZP solution. Following AZP incubation, slides were washed in PBS (3×5 minutes), stained with Hoechst (5 μg/mL, Invitrogen) and the appropriate secondary antibody if relevant (Invitrogen, 1:500), washed in PBS (3×5 minutes), and mounted with ProLong™ Diamond Antifade Mountant (Invitrogen). Slides were scanned on a Pannoramic 250 Flash III whole slide scanner (3DHistech).
The Z1 AZP (10 μmol/L) was incubated with recombinant fibroblast activation protein (FAP) in FAP assay buffer (50 mM Tris, 1 M NaCl, pH 7.5) overnight at 37° C. to run the cleavage reaction to completion. After precleavage with recombinant FAP, the AZP solution was diluted to a final peptide concentration of 0.1 μM in protease assay buffer. Cognate intact Z1 AZP (1 μmol/L) and precleaved Z1 AZP, each with a free polyR control (0.1 μM), were applied to fresh-frozen Eml4-Alk lung tissue sections (slide preparation described above) and incubated at 37° C. for 4 hours. After AZP incubation, slides were washed, stained with Hoechst, mounted, and scanned.
AZP and immunofluorescence staining was quantified in QuPath™ 0.2.3[53] and in ImageJ™ (NIH, v1.53). To perform cell-by-cell analysis, cell segmentation was performed using automated cell detection on the DAPI (nuclear) channel. For quantification of activity inhibition, AZP staining was calculated as a fold change of the mean nuclear AZP signal over the mean nuclear polyR signal. All nuclei within an individual tumor were averaged across that given tumor. Nuclei with a polyR intensity of less than 3 were excluded from analysis. For quantification of AZP intensity based on cell morphology and marker expression, cells were annotated as “vimentin-positive, spindle” if they were spindle-shaped and expressed vimentin; “E-cadherin-positive, cuboidal” if they were cuboidal-shaped and expressed E-cadherin; “vimentin-positive, round” if they were rounded and expressed vimentin. A random forest classifier was trained on all annotated cells (at least 20 cells per class) using multiple cellular features, including nuclear area and eccentricity, and mean cellular fluorescence intensity across all channels. The trained classifier was then applied to all cells across all tumors in the tissue section, and mean cellular fluorescence intensity was quantified.

Data set [3] concerns serine proteases of mouse colon tissue sections. Nature of the data set: AZP staining of frozen mouse colon sections. It is filed as biochemical. The source says: We validated the AZP principle on colon tissue, whose epithelial cells secrete serine proteases including urokinase plasminogen activator (uPA). We therefore synthesized a Cy5-labeled AZP, termed PZ2 (SEQ ID NO:176), containing a serine protease-cleavable linker. Because similar peptides had never been applied directly to frozen tissue sections, it was unknown whether AZPs would nonspecifically bind to the tissue, or whether proteolytic cleavage would be required for AZP binding. We therefore pre-cleaved PZ2 with a serine protease, mesotrypsin (PRSS3) and applied it to a frozen section of mouse colon for 30 minutes. As a binding control, we also applied intact, uncleaved PZ2 to a consecutive section of mouse colon.
Having verified that proteolytic cleavage induces AZP binding, we next sought to validate whether AZPs could enable localization of protease activity in situ (FIG. 19a). Specifically, it was unknown whether frozen tissue sections would maintain sufficient protease activity to induce probe cleavage or whether cleaved probes would bind at the site of cleavage rather than diffusing to a distant site. We applied PZ2 and a binding control (free polyR-Cy7) to fresh-frozen sections of mouse colon (FIG. 19b). […] These findings verified that protease activity in the tissue section was necessary and sufficient to activate AZPs. Strikingly, we found strong colocalization of PZ2 with E-cadherin, a specific marker of epithelial cells, providing evidence that cleaved AZPs bind at the site of cleavage, rather than diffusing to a distant site (FIG. 19d).

Data set [4] concerns homogenates of prostates from Hi-Myc PCa mice. Nature of the data set: Multiplexed bead-coupled substrate screen against prostate homogenates. It is filed as biochemical, mouse. To be noted: pre-treatment of Hi-Myc prostate homogenates. The protocol:
We turned to the Hi-Myc genetically engineered mouse model of PCa, wherein c-Myc is overexpressed in the murine prostate, resulting in invasive PCa. We selected a panel of 18 peptides previously found by our group to be recognized by a diverse array of metallo- and serine proteases dysregulated in PCa^20 and appended each with a unique, mass-encoded reporter molecule. We coupled these barcoded substrates to magnetic beads via a non-cleavable poly(ethylene glycol) (PEG) linker and incubated the bead cocktail against homogenates of prostates from PCa mice and from age-matched healthy controls (FIG. 20a). Beads were pulled down via magnetic separation, and liberated reporter molecules in the supernatant were measured by mass spectrometry, enabling quantification of substrate cleavage. Unsupervised hierarchical clustering of the cleavage data yielded two distinct clusters corresponding to prostates from PCa mice and prostates from healthy mice (FIG. 20b).

Data set [5] relates to MMP activity in Hi-Myc prostate tissue sections. Nature of the data set: AZP staining of fresh-frozen Hi-Myc prostate sections. It is filed as biochemical, mouse. From the text: It was unknown whether AZPs could enable in situ localization of the cleavage of peptides discovered in a screen of bulk homogenates. We therefore synthesized a new AZP (PZ19: SEQ ID NO:186) and applied it to fresh-frozen sections of prostates from Hi-Myc mice (FIG. 21a). With the exception of the protease-cleavable linker and fluorophore, PZ19 was identical in design to the serine protease-responsive PZ2. […] PZ19 labeling was abrogated by the MMP inhibitor marimastat (FIG. 21b middle row), though the free polyR control was unchanged.
It was unknown whether AZPs could be used in conjunction with antibodies to enable dual zymography and immunofluorescence labeling. […] Further, PZ19 labeling and co-localization with Ki67 was abrogated by addition of marimastat (FIG. 21d).

Data set [6] relates to T1, PZ2, Cy5-labeled AZP containing a serine protease-cleavable linker.
T1 sequence: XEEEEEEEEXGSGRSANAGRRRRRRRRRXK

For data set [7], the system named is T2, quenched probe Q1, incorporating the substrate S1.
T2 sequence: GGPQGIWGQC

Take “U-eeeeeeee-X-GGLVPRGSGG-rrrrrrrrr-X-K(Cy5) (Suc-[dE][dE][dE][dE][dE][dE][dE][dE][Ahx]GGLVPRGSGG[dR][dR][dR][dR][dR][dR][dR][dR][dR][Ahx]K(Cy5)) [Z2]”: in data set [1], the “labeling of PCa tissue relative to normal prostates” value is reported as “preferentially label PCa tissue” and the “labeling with vs without broad-spectrum cocktail of protease inhibitors” value is “protease-dependent labeling”.
As for “UeeeeeeeeXGGLGPKGQTGGrrrrrrrrrX-k(Cy3) (Suc-[dE][dE][dE][dE][dE][dE][dE][dE][Ahx]GGLGPKGQTGG[dR][dR][dR][dR][dR][dR][dR][dR][dR][Ahx][dK](Cy3)) [Z7]”, the “AZP labeling of Eml4-Alk lung tissue” value in data set [2] was “protease-mediated, tumor-specific labeling”.
“U-eeeeeeee-X-GsGrsanaG-rrrrrrrrr-X-K(Cy5) (Suc-[dE][dE][dE][dE][dE][dE][dE][dE][Ahx]G[dS]G[dR][dS][dA][dN][dA]G[dR][dR][dR][dR][dR][dR][dR][dR][dR][Ahx]K(Cy5)) [dPZ2, AZP with a non-cleavable d-stereoisomer linker]”: the “probe staining of fresh-frozen mouse colon sections” value in data set [3] (four-hour incubation) was “no Cy5 fluorescence”.
Consider “U-eeeeeeee-X-GSGRSANAG-rrrrrrrrr-X-K(Cy5) (Suc-[dE][dE][dE][dE][dE][dE][dE][dE][Ahx]GSGRSANAG[dR][dR][dR][dR][dR][dR][dR][dR][dR][Ahx]K(Cy5)) [PZ2]”, for which the “probe staining of fresh-frozen mouse colon sections” value in data set [3] (four-hour incubation) is reported as “strong PZ2 staining”. Moreover, the “fluorescence of colon sections treated with intact probe” value in data set [3] (intact, 30 minutes) is “minimal fluorescence”. Moreover, in data set [3] (pre-cleaved with mesotrypsin (PRSS3), 30 minutes), the “fluorescence of colon sections treated with pre-cleaved probe” value is recorded as “notable fluorescent signal throughout”.
Regarding `Cl.NCCc1ccc(S(=O)(=O)F)cc1` [AEBSF, 4-(2-aminoethyl)benzenesulfonyl fluoride hydrochloride, reference compound], the “effect of inhibitor on PZ2 staining” value in data set [3] (four-hour incubation, mouse colon) was “abrogated”. Also, in data set [4], the “effect of inhibitor on cleavage of PM19” value is reported as “minimally affected cleavage”. The “effect of inhibitor on Z1 tissue labeling” value in data set [2] is “completely abrogated Z1 tissue labeling to the level of broad-spectrum inhibition”.
Take `CNC(=O)[C@@H](NC(=O)[C@H](CC(C)C)[C@H](O)C(=O)NO)C(C)(C)C` [marimastat, reference compound]: the “effect of inhibitor on PZ19 labeling” value in data set [5] (Hi-Myc prostate sections) is “abrogated”. Moreover, the “effect of inhibitor on cleavage of PM19” value in data set [4] is “fully inhibited cleavage of PM19”. For the same compound, in data set [2], the “effect of inhibitor on Z1 tissue labeling” value is on record as “did reduce Z1 signal”.
On to mesotrypsin (PRSS3), for which the “in vitro pre-cleavage of the probe, read out by tissue fluorescence” value in data set [6] is reported as “We therefore pre-cleaved PZ2 with a serine protease, mesotrypsin (PRSS3)”.
Consider “U-eeeeeeee-X-GPVPLSLVMG-rrrrrrrrr-X-K(5FAM) (Suc-[dE][dE][dE][dE][dE][dE][dE][dE][Ahx]GPVPLSLVMG[dR][dR][dR][dR][dR][dR][dR][dR][dR][Ahx]K(5FAM)) [PZ19]”, for which, in data set [1], the “labeling of PCa tissue relative to normal prostates” value was “no significant difference between PCa and normal cores”; the “labeling with vs without broad-spectrum cocktail of protease inhibitors” value is “no difference between the uninhibited and inhibited conditions”. Further, the “probe labeling of Hi-Myc prostate sections” value in data set [5] (fresh-frozen sections) is “PZ19 labeling in histologically normal glands of the Hi-Myc prostate”. Moreover, the “PZ19 labeling of normal mouse prostate” value in data set [5] (histologically similar region of healthy prostate) is reported as “reduced PZ19 labeling”.
Regarding “UeeeeeeeeXGGPQGIWGQGrrrrrrrrrX-k(Cy5) (Suc-[dE][dE][dE][dE][dE][dE][dE][dE][Ahx]GGPQGIWGQG[dR][dR][dR][dR][dR][dR][dR][dR][dR][Ahx][dK](Cy5)) [Z1]”, in data set [2] (Eml4-Alk and healthy lung sections), the “Z1 staining in CD31-high cells of Eml4-Alk sections relative to CD31-high healthy and CD31-low cells” value is recorded as “significantly increased”. Further, the “Z1 intensity in vimentin-positive spindle-like cells relative to E-cadherin-positive or vimentin-positive rounded cells” value in data set [2] (Eml4-Alk tumors) is “increased Z1 intensity”. For the same compound, in data set [2] (Eml4-Alk tumors vs free polyR binding control), the “Z1 staining of Eml4-Alk tumors” value is reported as “strong, spindle-like staining”. Further, the “Z1 staining of healthy lungs” value in data set [2] (healthy lung sections) was “undetectable”. For the same compound, in data set [2], the “AZP labeling of Eml4-Alk lung tissue” value is given as “protease-mediated, tumor-specific labeling”. For the same compound, the “tissue labeling pattern of intact Z1” value in data set [2] (intact Z1 1 μmol/L, 37° C. 4 hours, Eml4-Alk tumors) is “maintained its spindle-like spatial pattern”. Also, the “tissue labeling pattern of FAP-precleaved Z1” value in data set [2] (precleaved with recombinant FAP, 0.1 μM, Eml4-Alk tumors) was “diffuse, uniform labeling that mirrored that of a free polyR”.
For the compound “recombinant fibroblast activation protein (FAP)”, in data set [7], the “fluorescence activation monitored over time (cleavage of quenched probe)” value is “Fibroblast activation protein (FAP) cleaves S1 in vitro”.

Source of the values: patent publication US20250003968A1, “ACTIVITY-BASED CELL SORTING” (MASSACHUSETTS INSTITUTE OF TECHNOLOGY, priority 2021, published 2025).
